Test results published in ChEMBL document CHEMBL1145498, “A systematic interaction map of validated kinase inhibitors with Ser/Thr kinases” (Proc Natl Acad Sci U S A, 2007).

Legend:
[1] = biological target: Dual specificity protein kinase CLK3 (Homo sapiens) (UniProt P49761)
[2] = biological target: Casein kinase I isoform gamma-2 (Homo sapiens) (UniProt P78368)
[3] = biological target: T1, Serine/threonine-protein kinase 17A (Homo sapiens) (UniProt Q9UEE5)
T1 sequence (whole entry): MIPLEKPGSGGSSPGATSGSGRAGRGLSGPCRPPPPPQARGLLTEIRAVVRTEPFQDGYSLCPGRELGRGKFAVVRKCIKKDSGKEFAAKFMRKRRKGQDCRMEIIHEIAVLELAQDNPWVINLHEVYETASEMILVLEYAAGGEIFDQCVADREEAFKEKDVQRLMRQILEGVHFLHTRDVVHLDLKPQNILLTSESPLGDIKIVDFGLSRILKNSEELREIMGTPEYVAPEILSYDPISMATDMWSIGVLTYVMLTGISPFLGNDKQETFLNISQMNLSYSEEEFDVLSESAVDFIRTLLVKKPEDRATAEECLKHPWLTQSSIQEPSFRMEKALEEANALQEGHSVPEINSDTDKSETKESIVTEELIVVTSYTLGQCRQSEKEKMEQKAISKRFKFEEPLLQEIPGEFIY

[4] = biological target: Calcium/calmodulin-dependent protein kinase type II subunit alpha (Homo sapiens) (UniProt Q9UQM7)
[5] = biological target: Serine/threonine-protein kinase Chk2 (Homo sapiens, UniProt O96017)
Chain of Serine/threonine-protein kinase Chk2 (O96017 whole entry): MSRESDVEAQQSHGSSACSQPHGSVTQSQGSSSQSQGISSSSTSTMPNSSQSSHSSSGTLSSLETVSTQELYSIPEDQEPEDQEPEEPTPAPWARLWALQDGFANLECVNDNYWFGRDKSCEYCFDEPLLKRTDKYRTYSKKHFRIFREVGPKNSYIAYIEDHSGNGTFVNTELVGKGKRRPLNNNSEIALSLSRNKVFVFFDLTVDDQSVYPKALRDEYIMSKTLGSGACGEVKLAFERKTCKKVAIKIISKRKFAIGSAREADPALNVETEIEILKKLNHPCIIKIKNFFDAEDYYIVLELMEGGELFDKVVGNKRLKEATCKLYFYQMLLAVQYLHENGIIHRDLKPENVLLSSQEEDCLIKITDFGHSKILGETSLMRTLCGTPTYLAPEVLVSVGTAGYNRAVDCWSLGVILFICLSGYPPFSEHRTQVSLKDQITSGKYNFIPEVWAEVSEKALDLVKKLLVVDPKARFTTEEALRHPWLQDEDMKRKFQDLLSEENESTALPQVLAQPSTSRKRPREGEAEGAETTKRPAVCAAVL

[6] = biological target: T2, Dual specificity mitogen-activated protein kinase kinase 6 (Homo sapiens) (UniProt P52564)
T2 sequence (whole entry): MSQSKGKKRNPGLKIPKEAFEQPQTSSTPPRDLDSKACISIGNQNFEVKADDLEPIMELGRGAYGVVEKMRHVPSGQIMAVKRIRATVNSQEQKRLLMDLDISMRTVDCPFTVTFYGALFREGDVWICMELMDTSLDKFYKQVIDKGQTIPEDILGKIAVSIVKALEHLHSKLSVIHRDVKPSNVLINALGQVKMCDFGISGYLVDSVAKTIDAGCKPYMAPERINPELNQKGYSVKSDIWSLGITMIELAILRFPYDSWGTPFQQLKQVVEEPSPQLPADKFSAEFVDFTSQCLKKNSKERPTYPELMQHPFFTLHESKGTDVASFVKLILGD

[7] = biological target: Serine/threonine-protein kinase 26 (Homo sapiens) (UniProt Q9P289)
[8] = biological target: Calcium/calmodulin-dependent protein kinase kinase 2 (Homo sapiens, UniProt Q96RR4)
Chain of Calcium/calmodulin-dependent protein kinase kinase 2 (Q96RR4 2-588 limits assumed): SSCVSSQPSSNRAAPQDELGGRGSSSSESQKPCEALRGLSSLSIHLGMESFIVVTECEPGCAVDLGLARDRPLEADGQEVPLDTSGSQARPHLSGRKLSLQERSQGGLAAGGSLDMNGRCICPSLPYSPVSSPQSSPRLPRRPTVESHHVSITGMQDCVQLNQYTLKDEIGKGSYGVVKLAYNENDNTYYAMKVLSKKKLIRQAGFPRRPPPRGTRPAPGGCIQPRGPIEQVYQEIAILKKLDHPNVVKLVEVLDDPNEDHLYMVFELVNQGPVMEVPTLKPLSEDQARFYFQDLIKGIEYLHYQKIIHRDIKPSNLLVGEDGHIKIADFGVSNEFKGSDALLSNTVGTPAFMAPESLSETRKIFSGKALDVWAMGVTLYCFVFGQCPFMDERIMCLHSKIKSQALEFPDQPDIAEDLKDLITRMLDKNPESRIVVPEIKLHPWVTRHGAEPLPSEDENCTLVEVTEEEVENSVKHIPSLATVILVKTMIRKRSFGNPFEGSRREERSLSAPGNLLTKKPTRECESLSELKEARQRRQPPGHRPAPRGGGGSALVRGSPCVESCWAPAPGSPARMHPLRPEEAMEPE

[9] = biological target: Serine/threonine-protein kinase pim-2 (Homo sapiens, UniProt Q9P1W9)
[10] = biological target: Serine/threonine-protein kinase PAK 6 (Homo sapiens) (UniProt Q9NQU5)
Chain of Serine/threonine-protein kinase PAK 6 (Homo sapiens) (Q9NQU5 whole entry, looked up): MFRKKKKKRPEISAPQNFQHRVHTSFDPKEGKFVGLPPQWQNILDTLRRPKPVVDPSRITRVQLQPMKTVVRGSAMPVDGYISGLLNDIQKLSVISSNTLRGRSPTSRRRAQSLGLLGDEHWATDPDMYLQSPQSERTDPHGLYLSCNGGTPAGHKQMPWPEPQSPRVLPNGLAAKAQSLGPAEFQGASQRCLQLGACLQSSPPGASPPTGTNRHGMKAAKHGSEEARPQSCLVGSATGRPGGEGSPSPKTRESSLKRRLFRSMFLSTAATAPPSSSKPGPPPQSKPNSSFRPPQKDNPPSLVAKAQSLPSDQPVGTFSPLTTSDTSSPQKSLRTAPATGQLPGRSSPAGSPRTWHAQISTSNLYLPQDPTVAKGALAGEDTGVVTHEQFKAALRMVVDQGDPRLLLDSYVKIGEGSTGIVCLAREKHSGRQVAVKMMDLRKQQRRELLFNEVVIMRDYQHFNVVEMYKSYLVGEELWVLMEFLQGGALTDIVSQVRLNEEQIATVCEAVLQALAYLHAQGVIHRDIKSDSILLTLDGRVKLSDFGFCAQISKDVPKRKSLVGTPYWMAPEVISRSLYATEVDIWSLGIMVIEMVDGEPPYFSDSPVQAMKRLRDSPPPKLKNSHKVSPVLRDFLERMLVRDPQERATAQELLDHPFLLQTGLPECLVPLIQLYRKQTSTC

[11] = biological target: Serine/threonine-protein kinase 10 (Homo sapiens) (UniProt O94804)
[12] = biological target: STE20-like serine/threonine-protein kinase (Homo sapiens) (UniProt Q9H2G2)
Chain of STE20-like serine/threonine-protein kinase (Homo sapiens) (Q9H2G2 whole entry, looked up): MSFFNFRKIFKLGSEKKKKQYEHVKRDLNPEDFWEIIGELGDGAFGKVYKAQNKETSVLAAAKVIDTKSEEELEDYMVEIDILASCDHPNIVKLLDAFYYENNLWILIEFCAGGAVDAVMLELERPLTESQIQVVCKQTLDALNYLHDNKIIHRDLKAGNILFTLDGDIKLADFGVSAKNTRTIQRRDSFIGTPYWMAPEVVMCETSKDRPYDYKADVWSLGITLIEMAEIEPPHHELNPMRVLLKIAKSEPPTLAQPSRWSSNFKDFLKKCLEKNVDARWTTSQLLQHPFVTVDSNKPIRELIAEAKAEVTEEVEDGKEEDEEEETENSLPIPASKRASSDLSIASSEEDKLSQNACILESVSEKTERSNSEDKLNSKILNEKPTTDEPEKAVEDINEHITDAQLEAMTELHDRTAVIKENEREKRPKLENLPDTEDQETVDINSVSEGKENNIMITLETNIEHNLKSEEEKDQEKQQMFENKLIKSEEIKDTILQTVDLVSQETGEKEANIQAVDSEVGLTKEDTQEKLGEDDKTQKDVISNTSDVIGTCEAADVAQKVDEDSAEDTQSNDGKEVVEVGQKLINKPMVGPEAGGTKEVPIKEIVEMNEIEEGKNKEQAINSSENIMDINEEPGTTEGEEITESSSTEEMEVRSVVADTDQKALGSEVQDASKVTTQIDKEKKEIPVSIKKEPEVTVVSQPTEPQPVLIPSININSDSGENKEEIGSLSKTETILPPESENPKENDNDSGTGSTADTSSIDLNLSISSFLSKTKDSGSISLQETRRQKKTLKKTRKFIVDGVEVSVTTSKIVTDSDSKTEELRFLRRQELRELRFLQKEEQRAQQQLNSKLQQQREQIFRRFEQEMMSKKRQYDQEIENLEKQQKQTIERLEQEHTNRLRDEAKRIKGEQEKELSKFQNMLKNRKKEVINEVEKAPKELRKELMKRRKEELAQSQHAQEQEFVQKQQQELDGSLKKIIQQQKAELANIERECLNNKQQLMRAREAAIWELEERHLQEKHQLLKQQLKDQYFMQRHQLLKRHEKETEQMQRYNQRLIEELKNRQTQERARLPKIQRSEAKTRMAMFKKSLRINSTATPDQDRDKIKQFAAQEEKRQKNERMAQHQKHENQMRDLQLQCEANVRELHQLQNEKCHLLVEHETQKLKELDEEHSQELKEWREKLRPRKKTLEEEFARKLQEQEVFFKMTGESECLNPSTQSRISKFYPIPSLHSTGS

[13] = biological target: Serine/threonine-protein kinase PLK1 (Homo sapiens) (UniProt P53350)
Chain of Serine/threonine-protein kinase PLK1 (Homo sapiens) (P53350 whole entry): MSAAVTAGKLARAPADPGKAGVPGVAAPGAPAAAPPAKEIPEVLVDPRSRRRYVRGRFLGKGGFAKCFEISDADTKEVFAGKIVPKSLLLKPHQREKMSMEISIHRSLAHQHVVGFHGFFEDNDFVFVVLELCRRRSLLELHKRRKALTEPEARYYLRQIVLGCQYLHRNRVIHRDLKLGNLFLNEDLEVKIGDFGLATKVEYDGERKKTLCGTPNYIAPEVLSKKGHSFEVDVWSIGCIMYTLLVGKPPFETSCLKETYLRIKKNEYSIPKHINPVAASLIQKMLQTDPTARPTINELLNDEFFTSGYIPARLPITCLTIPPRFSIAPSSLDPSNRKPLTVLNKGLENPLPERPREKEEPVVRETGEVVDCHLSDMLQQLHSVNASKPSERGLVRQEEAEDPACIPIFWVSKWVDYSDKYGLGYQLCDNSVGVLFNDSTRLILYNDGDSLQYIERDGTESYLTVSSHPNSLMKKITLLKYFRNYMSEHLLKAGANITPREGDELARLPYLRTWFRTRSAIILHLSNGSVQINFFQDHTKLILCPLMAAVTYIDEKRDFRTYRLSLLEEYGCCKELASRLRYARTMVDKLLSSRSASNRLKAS

[14] = biological target: cAMP-dependent protein kinase catalytic subunit alpha (Homo sapiens) (UniProt P17612)
[15] = biological target: T3, Lymphokine-activated killer T-cell-originated protein kinase (Homo sapiens) (UniProt Q96KB5)
T3 sequence (whole entry): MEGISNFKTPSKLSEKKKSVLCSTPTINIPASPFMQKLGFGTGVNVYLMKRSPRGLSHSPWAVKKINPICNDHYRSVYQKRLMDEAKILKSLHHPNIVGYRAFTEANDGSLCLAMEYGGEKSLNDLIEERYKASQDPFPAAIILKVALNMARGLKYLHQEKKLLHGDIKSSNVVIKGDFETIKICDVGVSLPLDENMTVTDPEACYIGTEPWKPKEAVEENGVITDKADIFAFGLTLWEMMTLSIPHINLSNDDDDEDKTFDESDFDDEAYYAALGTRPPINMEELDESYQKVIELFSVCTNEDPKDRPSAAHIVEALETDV

[16] = biological target: Serine/threonine-protein kinase Nek6 (Homo sapiens) (UniProt Q9HC98)
Chain of Serine/threonine-protein kinase Nek6 (Homo sapiens) (Q9HC98 whole entry): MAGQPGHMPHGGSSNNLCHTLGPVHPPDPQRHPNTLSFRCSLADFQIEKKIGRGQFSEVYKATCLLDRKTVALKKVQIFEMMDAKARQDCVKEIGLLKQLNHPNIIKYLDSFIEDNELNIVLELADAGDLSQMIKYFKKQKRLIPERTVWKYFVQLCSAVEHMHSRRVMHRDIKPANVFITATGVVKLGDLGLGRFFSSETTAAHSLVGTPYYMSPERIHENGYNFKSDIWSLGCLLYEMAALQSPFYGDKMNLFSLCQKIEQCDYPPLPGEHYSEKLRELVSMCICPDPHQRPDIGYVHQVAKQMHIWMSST

Chain of Dual specificity protein kinase CLK3 (Homo sapiens) (P49761 whole entry, looked up, canonical isoform): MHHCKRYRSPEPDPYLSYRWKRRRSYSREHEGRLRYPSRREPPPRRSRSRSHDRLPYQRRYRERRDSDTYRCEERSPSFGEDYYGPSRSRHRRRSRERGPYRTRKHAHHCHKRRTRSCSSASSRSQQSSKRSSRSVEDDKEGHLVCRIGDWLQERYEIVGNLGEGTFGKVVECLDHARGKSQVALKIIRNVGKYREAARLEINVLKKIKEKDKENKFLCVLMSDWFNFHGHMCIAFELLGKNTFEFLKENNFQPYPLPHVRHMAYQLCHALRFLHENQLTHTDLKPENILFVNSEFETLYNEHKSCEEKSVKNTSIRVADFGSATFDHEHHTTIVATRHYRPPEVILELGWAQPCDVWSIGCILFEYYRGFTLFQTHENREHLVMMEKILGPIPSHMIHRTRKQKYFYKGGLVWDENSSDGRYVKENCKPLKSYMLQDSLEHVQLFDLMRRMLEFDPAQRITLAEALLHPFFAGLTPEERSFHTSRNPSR
Chain of Casein kinase I isoform gamma-2 (Homo sapiens) (P78368 whole entry, looked up, canonical isoform): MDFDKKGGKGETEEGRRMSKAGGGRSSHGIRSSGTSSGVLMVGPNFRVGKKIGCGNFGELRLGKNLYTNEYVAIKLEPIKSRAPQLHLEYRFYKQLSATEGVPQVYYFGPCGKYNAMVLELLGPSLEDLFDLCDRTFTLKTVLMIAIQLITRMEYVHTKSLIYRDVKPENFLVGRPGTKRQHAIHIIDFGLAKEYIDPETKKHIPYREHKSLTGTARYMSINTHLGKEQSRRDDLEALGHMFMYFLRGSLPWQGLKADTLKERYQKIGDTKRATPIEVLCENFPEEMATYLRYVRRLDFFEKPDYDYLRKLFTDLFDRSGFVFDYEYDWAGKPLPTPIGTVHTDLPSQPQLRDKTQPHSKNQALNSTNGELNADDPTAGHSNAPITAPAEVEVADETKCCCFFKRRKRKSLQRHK

| SMILES | ΔTm [1] [°C] | ΔTm [2] [°C] | ΔTm [3] [°C] | ΔTm [4] [°C] | ΔTm [5] [°C] | ΔTm [6] [°C] | ΔTm [7] [°C] | ΔTm [8] [°C] | ΔTm [9] [°C] | ΔTm [10] [°C] | ΔTm [11] [°C] | ΔTm [12] [°C] | ΔTm [13] [°C] | ΔTm [14] [°C] | ΔTm [15] [°C] | ΔTm [16] [°C] |
| --- | --- | --- | --- | --- | --- | --- | --- | --- | --- | --- | --- | --- | --- | --- | --- | --- |
| O=C1NC(=O)C(c2c[nH]c3ccccc23)=C1c1c[nH]c2ccccc12 | 2.5 | 0.7 | 2.9 | 3.3 | 2.6 | 1.1 | 3.7 | -0.4 | 4 | 0.8 | 6.2 | 4.6 | 0.6 | 1.4 | -0.2 | -0.2 |
| O=C1C=C2C(=Nc3c2c2c(c4c3=NC3=C4CCC=C3)C=NC=2)CC1 | 2.3 | 1.4 | 2.6 | 3.7 | 7.9 | 5.3 | 8.5 | 6.3 | 5.2 | 3.1 | 3.9 | 6.4 | 11.9 | 2.1 | 0.9 | 0.5 |
| O=c1cc(-c2ccc(O)cc2)oc2cc(O)cc(O)c12 | 3.1 | 0.7 | 7.3 | 0.5 | 2.7 | 2.2 | 2.1 | 3 | 3.8 | 0.3 | 4 | 2.4 | 2 | 1.7 | 0.5 | 0.2 |
| Cn1cc(/C=C2/C(=O)Nc3ccc(S(N)(=O)=O)cc32)c2ccccc21 | 3.2 | 0.5 | 6.1 | 2.7 | 10.6 | 10.3 | -0.2 | 3.5 | 8.2 | -0.6 | 6.3 | 8.4 | -0.7 | 0.9 | -1.2 | 1.7 |
| N#C/C(=C\c1ccc(O)c(O)c1)C(=O)Nc1ccccc1 | 0.2 | 1.2 | 2.8 | 0.3 | 0.1 | 0.3 | 0.4 | 0.5 | 1.5 | 0 | 1.2 | 1.8 | 0.7 | 0.4 | 0.5 | 0.9 |
| N#C/C(=C1/Nc2ccccc2S1)c1ccnc(NCCc2cccnc2)n1 | 4.9 | 2.5 | 4.7 | 2.6 | 5.2 | 3.5 | 0.9 | 3.7 | 7.4 | 1.6 | 1.4 | 1.8 | 2.1 | 1.6 | 0.8 | 1.7 |
| O=c1c(-c2ccc(O)cc2)coc2cc(O)cc(O)c12 | 1 | 0.3 | 0.6 | 0.8 | 1.6 | 0.9 | 0.8 | 1.3 | 3.1 | -0.9 | 0 | 2.4 | 1.4 | 2.1 | 0.7 | 1 |
| CN(C)c1ccc(CC2C(=O)Nc3ccccc32)cc1 (stereo unspecified) | 0.1 | 0.8 | 6.2 | -0.3 | 0.7 | 0.5 | 0.3 | 2 | 0.4 | 0.1 | 0.9 | 0.8 | -0.2 | 0.2 | 0.1 | 0 |
| O=C1Nc2ccc(I)cc2/C1=C1/Nc2ccccc2/C1=N\O | 3.5 | 1.9 | 7 | 4.5 | 1.9 | 1.5 | 0 | 6.9 | -0.5 | 0.9 | 0 | 3.7 | -0.7 | -0.7 | -2.4 | -2 |
| Nc1cc2ncnc(Nc3cccc(Br)c3)c2cc1N | 1.6 | 0.4 | 7.7 | 0 | 1.8 | 0.7 | 4.2 | -1 | 2.6 | 0.3 | 6.1 | 5.7 | -1.4 | 1 | -0.2 | -0.2 |
| O=C1Cc2c([nH]c3ccc([N+](=O)[O-])cc23)-c2ccccc2N1 | 1 | 0.8 | 11.4 | 0.6 | 7.8 | 1.2 | 1.3 | 2.5 | 1.5 | 3.1 | 2.3 | 2.1 | 0.5 | 1.6 | 0.1 | 0.8 |
| O=C1Nc2ccc(I)cc2/C1=C\c1cc(Br)c(O)c(Br)c1 | 0.5 | 1.1 | 4.8 | -0.8 | 0.1 | 1.6 | 1.6 | 3.5 | 6.8 | -0.3 | 0.5 | 2.2 | 0.5 | 1 | 0.9 | 0 |
| O=c1cc(N2CCOCC2)oc2c(-c3ccccc3)cccc12 | 0.1 | 0.4 | 1 | 0.5 | -0.4 | 0.4 | 0.2 | 0.4 | 1.3 | -0.6 | 0.8 | -0.1 | 4.7 | -0.1 | -0.5 | -0.5 |
| CN(C)CC1CCn2c(c(C3=C(c4c[nH]c5ccccc45)C(=O)NC3=O)c3ccccc32)C1 (stereo unspecified) | 0.3 | 0.3 | 5.3 | 1.6 | 0.6 | 0.8 | 0.4 | -0.8 | 1.7 | 0.7 | 4.1 | 4.2 | -0.2 | 2.2 | -0.8 | -0.9 |
| O=c1c(-c2ccc(F)cc2)c(-c2ccncc2)[nH]n1-c1ccc(Cl)cc1 | 0.3 | 0.7 | 0.2 | 0.5 | 0.3 | 0.3 | 0.6 | 0.2 | 0.2 | -0.4 | 4.3 | 2.4 | 0.3 | 1.5 | 0.8 | 0.8 |
| O=[N+]([O-])c1ccc(-c2nc(-c3ccc(F)cc3)c(-c3ccncc3)[nH]2)cc1 | 0.1 | 1.7 | 0.6 | 2.2 | -0.4 | 0 | -1.4 | -0.5 | 0.5 | -0.2 | 5.9 | 5.4 | -1.4 | 1.6 | 0.3 | 0.9 |
